Reference: the supplement of paper PMC10307832

How the values were obtained:
Assay in all cases: relative viability (nuclei count vs DMSO), 5 days (fraction); higher = more cells survive
[1] = compound: C#Cc1cccc(Nc2ncnc3cc(OC)c(OCCCCCCC(=O)NO)cc23)c1 [CUDC-101] + O=C(c1cc(Cc2n[nH]c(=O)c3ccccc23)ccc1F)N1CCN(C(=O)C2CC2)CC1 [Olaparib] (partner 8 µM)
Summary of the method: (§1)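 Medians of duplicate plates are given as relative viability. That measure is the nuclei count in treated wells divided by the count in vehicle wells. Counts were taken on 4× images of lung cancer cell lines in 1536-well plates, 5 days after pin-tool dosing the day after seeding with one drug alone or a fixed anchor-drug dose plus five library-drug doses (not always all listed) in √10 steps.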

[2] = compound: C1=CC=C2C(=C1)N=C(S2)C(C#N)C3=NC(=NC=C3)NCCC4=CN=CC=C4 + Nc1nc2[nH]cc(CCc3ccc(C(=O)N[C@@H](CCC(=O)O)C(=O)O)cc3)c2c(=O)[nH]1 [Pemetrexed] (partner 0.2 µM)
Summary of the method: as §1

[3] = compound: COc1cc2/c(=N/c3ccc(Br)cc3F)nc[nH]c2cc1OCC1CCN(C)CC1 [Vandetanib] + C[C@@H](Oc1cc(-c2cnn(C3CCNCC3)c2)cnc1N)c1c(Cl)ccc(F)c1Cl [Crizotinib] (partner 1 µM)
Summary of the method: as §1

[4] = compound: COc1cc2/c(=N/c3ccc(Br)cc3F)nc[nH]c2cc1OCC1CCN(C)CC1 [Vandetanib] + Nc1nc2[nH]cc(CCc3ccc(C(=O)N[C@@H](CCC(=O)O)C(=O)O)cc3)c2c(=O)[nH]1 [Pemetrexed] (partner 0.2 µM)
Summary of the method: as §1

Cell Line	relative viability ([1]; first compound 0.01 µM)	relative viability ([1]; first compound 0.03162 µM)	relative viability ([1]; first compound 0.1 µM)	relative viability ([1]; first compound 0.3162 µM)	relative viability ([1]; first compound 1 µM)	relative viability ([2]; first compound 0.005 µM)	relative viability ([2]; first compound 0.01581 µM)	relative viability ([2]; first compound 0.05 µM)	relative viability ([2]; first compound 0.1581 µM)	relative viability ([2]; first compound 0.5 µM)	relative viability ([3]; first compound 0.02 µM)	relative viability ([3]; first compound 0.06325 µM)	relative viability ([3]; first compound 0.2 µM)	relative viability ([3]; first compound 0.6325 µM)	relative viability ([3]; first compound 2 µM)	relative viability ([4]; first compound 0.02 µM)	relative viability ([4]; first compound 0.06325 µM)	relative viability ([4]; first compound 0.2 µM)	relative viability ([4]; first compound 0.6325 µM)	relative viability ([4]; first compound 2 µM)
HCC-44	0.964	1.01	0.893	0.972	1.07	0.723	0.677	0.668	0.648	0.675	0.82	0.802	0.879	0.863	0.872	0.606	0.699	0.684	0.657	0.635
EKVX	1.06	0.737	0.71	0.961	0.624	0.398	0.382	0.39	0.459	0.417	1.01	0.882	1.13	1.02	0.531	0.385	0.373	0.459	0.349	0.363
NCI-H23	0.271	0.373	0.323	0.302	0.248		0.511	0.701	0.779	0.641	0.64	0.573	0.514	0.527	0.451	0.605	0.655	0.634	0.631	0.666
NCI-H2347	0.677	0.681	0.626	0.686	0.479	0.405	0.515	0.471	0.409	0.461	0.665	0.56	0.737	0.789	0.718	0.433	0.393	0.443	0.443	0.427
SK-LU-1	0.473	0.503	0.421	0.487	0.434	0.81	1.06	0.956	1.12	0.89	1.06	0.667	0.862	0.909	0.732	0.971	0.787	1.01	1.07	1.04
A549	0.415	0.24	0.355	0.417	0.286						0.777	0.69	0.862	0.686	0.683					
LU99A	0.259	0.24	0.233	0.192	0.105	0.215	0.214		0.193	0.19	0.546	0.498	0.63	0.522	0.577	0.172	0.191	0.197	0.21	0.187
NCI-H596	0.616	0.597	0.718	0.689	0.67	0.464	0.517	0.485	0.58	0.495	0.907	0.872	1.2	1.12	0.81	0.476	0.565	0.427	0.52	0.469
A-427	0.711	0.671	0.722	0.694	0.607	0.874	0.94	0.995	1.1	0.975	0.895	0.88	0.966	0.874	0.879	0.907	1	1.06	0.986	0.927
SW 900	0.887	0.811	0.841	0.686	0.628	0.39	0.471	0.484	0.521	0.482						0.472	0.464		0.483	0.464
COR-L 105	0.703	0.74	0.759	0.697	0.77	0.839	1.24	1.03	1.03	1.02	0.851	0.839	0.729	0.731	0.248	1.17	1.13	1.09	1.07	0.843
LOU-NH91	0.906	0.779	0.76	0.754	0.624	0.403	0.429	0.418	0.375	0.441	0.766	0.656	0.637	0.558	0.533	0.413	0.381	0.391	0.442	0.431
COR-L23	0.402	0.374	0.331	0.266	0.294	0.211	0.207	0.187	0.206	0.17	0.698	0.623	0.114	0.671	0.729	0.179	0.197	0.223	0.21	0.187
HCC-15	0.684	0.726	0.652	0.665	0.499	0.215	0.23	0.223	0.228	0.227	0.837	0.793	0.855	0.826	0.821	0.229	0.226	0.235	0.238	0.225
LCLC-103H	0.79	0.722	0.731	0.719	0.627	0.497	0.502	0.458	0.461	0.468	1.03	1.01	1.12	1.05	1	0.497	0.493	0.478	0.48	0.5
HARA	1	0.844		0.418	0.154	0.271	0.205	0.259	0.283	0.305	1.04	1.02	1.01	0.998	0.956	0.246	0.239	0.243	0.203	0.213
BEN	0.91	0.853	1.11	0.785	0.691	0.751	0.627	0.773	0.883	0.741	0.809	0.807	0.89	0.862	0.785	0.725	0.67	0.635	0.714	0.516
